In US8871681B2, “Herbicidal compositions comprising 4-amino-3-chloro-5-fluoro-6-(4-chloro-2-fluoro-3-methoxyphenyl) pyridine-2-carboxylic acid or a derivative thereof and certain sulfonylureas” (Dow AgroSciences LLC, priority 2012, dated 2014):

Test system: SCPMA (Bolboschoenus maritimus or Schoenoplectus maritimus, sea clubrush)
Assay: In-water applied weed control, transplanted paddy rice, greenhouse (Example II)
Assay type: in vivo, Bolboschoenus maritimus (L.) Palla
Procedure, shortened: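 Transplanted rice and weeds at first to fourth true leaf stage in flooded mud pots (2.5–3 cm water), greenhouse ~29/26 °C day/night. Herbicides alone or mixed, in 1.25% crop oil concentrate (acetone for technical material), injected into the flood; visual 0–100% injury after ~3 weeks, expected mixture effects by Colby.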

## COc1c(Cl)ccc(-c2nc(C(=O)O)c(Cl)c(N)c2F)c1F [Compound A Acid, 4-amino-3-chloro-5-fluoro-6-(4-chloro-2-fluoro-3-methoxy-phenyl)pyridine-2-carboxylic acid]
Table 28, 8.75 gae/ha alone
  Visual Weed Control (%) - 20 DAA SCPMA Obs: 40%
Table 28, 17.5 gae/ha alone
  Visual Weed Control (%) - 20 DAA SCPMA Obs: 20%
Table 28, 35 gae/ha alone
  Visual Weed Control (%) - 20 DAA SCPMA Obs: 20%
Table 28, second set, 70 gae/ha alone
  Visual Weed Control (%) - 20 DAA SCPMA Obs: 0%
Table 38, 35 gae/ha alone
  Visual Weed Control (%) - 20 DAA SCPMA Obs: 0%
Table 38, 70 gae/ha alone
  Visual Weed Control (%) - 20 DAA SCPMA Obs: 0%
Table 45, 42.4 gae/ha alone
  Visual Weed Control (%) - 20 DAA SCPMA Obs: 0%
Table 45, 84.8 gae/ha alone
  Visual Weed Control (%) - 20 DAA SCPMA Obs: 0%

## COc1c(Cl)ccc(-c2nc(C(=O)OCc3ccccc3)c(Cl)c(N)c2F)c1F [Compound A Benzyl Ester]
Table 29, 4.38 gae/ha alone
  Visual Weed Control (%) - 20 DAA SCPMA Obs: 10%
Table 29, 8.75 gae/ha alone
  Visual Weed Control (%) - 20 DAA SCPMA Obs: 0%
Table 29, 17.5 gae/ha alone
  Visual Weed Control (%) - 20 DAA SCPMA Obs: 20%
Table 29, 35 gae/ha alone
  Visual Weed Control (%) - 20 DAA SCPMA Obs: 0%
Table 29, 70 gae/ha alone
  Visual Weed Control (%) - 20 DAA SCPMA Obs: 0%
Table 32, 48 gae/ha alone
  Visual Weed Control (%) - 21 DAA SCPMA Obs: 0%
Table 32, 96 gae/ha alone
  Visual Weed Control (%) - 21 DAA SCPMA Obs: 0%
Table 33, 8 gae/ha alone
  Visual Weed Control (%) - 21 DAA SCPMA Obs: 0%
Table 33, 16 gae/ha alone
  Visual Weed Control (%) - 21 DAA SCPMA Obs: 0%
Table 33, 32 gae/ha alone
  Visual Weed Control (%) - 21 DAA SCPMA Obs: 0%
Table 39, 35 gae/ha alone
  Visual Weed Control (%) - 20 DAA SCPMA Obs: 0%
Table 39, 70 gae/ha alone
  Visual Weed Control (%) - 20 DAA SCPMA Obs: 0%
Table 46, 35 gae/ha alone
  Visual Weed Control (%) - 20 DAA SCPMA Obs: 0%
Table 46, 70 gae/ha alone
  Visual Weed Control (%) - 20 DAA SCPMA Obs: 0%
Table 48, 8 gae/ha alone
  Visual Weed Control (%) - 21 DAA SCPMA Obs: 0%
Table 48, 16 gae/ha alone
  Visual Weed Control (%) - 21 DAA SCPMA Obs: 0%
Table 48, 32 gae/ha alone
  Visual Weed Control (%) - 21 DAA SCPMA Obs: 0%

## COC(=O)c1ccccc1CS(=O)(=O)NC(=O)Nc1nc(OC)cc(OC)n1 [Bensulfuron-methyl, methyl 2-[[[[[(4,6-dimethoxy-2-pyrimidinyl)amino]carbonyl]amino]sulfonyl]methyl]benzoate, reference compound]
Table 32, 17.5 gai/ha alone
  Visual Weed Control (%) - 21 DAA SCPMA Obs: 45%
Table 32, 35 gai/ha alone
  Visual Weed Control (%) - 21 DAA SCPMA Obs: 90%
